From patent US5344841A, “Bis-(hydroxylakylamino)-anthraquinone inhibitors of protein kinase C” (Sphinx Pharmaceuticals Corporation, priority 1992, dated 1994) come the findings set out here.

SMILES strings stand for the structures. Where a name gives a salt, the structure may show the parent alone. Read-outs that look alike come from different tables or passages of the source.

One test concerns the target protein kinase C. Put plainly: Protein kinase C (PKC) inhibition assay (histone H1 phosphorylation). Format: biochemical. The conditions noted are these: rat brain PKC, histone H1 substrate. How it is done: The protein kinase C (PKC) assay is designed to duplicated the in vivo conditions required for protein kinase C function. Therefore, pH, salt and cofactor concentrations are similar to physiologic levels. Histone H1 (lysine rich) is used in the assay as the phosphorylation acceptor protein because it is readily available and serves as a good substrate for protein kinase C. The enzyme is prepared from rat brain and is purified to apparent homogeneity as determined by a single band on silver stained SDS-polyacrylamide. Studies on the mechanism of regulation of protein kinase C by phospholipids, DAG and Ca^+2 have been hampered by the physical properties of the lipid cofactors. In the screening assay, phosphatidylserine (PS) and DAG are cosonicated to form unilamellar and multilamellar vesicles. The concentration of lipids in the assay are suboptimal to maximize the detection potential of the assay for inhibitors. […] The assay is started with the addition of enzyme and stopped after 10 min by the addition of 25% trichloroacetic acid (TCA) and 1.0 mg/ml bovine serum albumin (BSA). The radioactive histone product is retained and washed on glass fiber filters that allow the unreacted ^32 P-ATP to pass through. The amount of phosphorylation is determined by the radioactivity measured in a scintillation counter. Controls are included in every assay to measure background activity in the absence of enzyme, activity in the absence of lipids and the maximum enzyme activity with saturating levels of the activator lipids.

The test system of test [1] is MCF-7 human breast tumor cell line. As to the kind of experiment: Human tumor growth inhibition, 3H-thymidine incorporation, MCF-7. The format is cell-based. The note with it: Homo sapiens, MCF7, 3 h, read-out: IC50 MCF-7. The text has this: (§1) MCF-7 a human breast tumor cell line, and MCF-7/ADR an adriamycin resistant line of MCF-7 cells were obtained from the National Cancer Institute, Frederick, Md. NHEK a human keratinocyte cell line was obtained from Clonetic Corp., San Diego, Calif. 8226 a human myeloma cell line, 8226/MT a Mitoxantrone resistant line of 8226 cells, and 8226 ADR an adriamycin resistant line of 8226 cells were obtained from Dr. Bill Dalton, Arizona Cancer Center, Tuscon, Ariz.
(§2) Human tumor cells are trypsinized (0.05% trypsin, GIBCO), counted with a hemacytometer and seeded at a concentration of 10,000 cells/well in a 96 well microtiter plate. After allowing cells to attach to the surface overnight, the culture medium is aspirated and replaced with 100 μl of fresh medium. Test agents are diluted to determine dose response at 2× final concentration and added in quadruplicate at 100 μl/well to bring the total volume of each well to 200 μl. The microtiter plate is then incubated at 37° C. 5% CO2 overnight (18-24 hrs) before ^3 H-thymidine is added at a concentration of 0.5 μCi/well in 50 μl culture medium. The plate is incubated again for 4 hrs under the same conditions as above. Supernatant is then aspirated and 50 μl trypsin (0.05%, GIBCO) is added to each well. Cells are checked microscopically to determine detachment from surfaces, and plates are then harvested with a cell harvester (PHD, Cambridge Technology, Inc.) Filter papers corresponding to wells are placed in scintillation vials and counted to determine the amount of ^3 H-thymidine incorporated by the cells. Test agent response is compared to a positive control of cell wells with culture media only to determine the IC50. IC50 is the concentration of test compound required to inhibit fifty percent of the incorporation of ^3 H-thymidine into proliferating cells not exposed to test agent. Uptake of ^3 H-thymidine is a standard test for measuring the metabolism of cells. Cells which are actively proliferating take up ^3 H-thymidine, whereas cells that are not proliferating take up ^3 H-thymidine at much slower rates or not at all. Test agents that inhibit the uptake of ^3 H-thymidine thus slow the growth of cells.
For orientation: Uptake of a labelled nucleoside into DNA is a usual measure of proliferation.

Test [2] deals with MCF-7/ADR adriamycin resistant line of MCF-7 cells. As to the kind of experiment: Human tumor growth inhibition, 3H-thymidine incorporation, MCF-7/ADR. The format is cell-based. The note with it: MCF-7/ADR vs MCF-7.
Excerpt: as §1, §2

Test [3] deals with 8226 human myeloma cell line. As to the kind of experiment: Human tumor growth inhibition, 3H-thymidine incorporation, 8226. The format is cell-based. The note with it: read-out: IC50 8226.
Excerpt: as §1, §2

Test [4] deals with 8226/ADR adriamycin resistant line of 8226 cells. Put plainly: Human tumor growth inhibition, 3H-thymidine incorporation, 8226/ADR. The format is cell-based. The note with it: 8226/ADR vs 8226.
Excerpt: as §1, §2

The test system of test [5] is MCF-7/ADR adriamycin resistant line of MCF-7 cells. Put plainly: Human tumor growth inhibition, 3H-thymidine incorporation, MCF-7/ADR. The conditions noted are these: NCI/ADR-RES, 3H-thymidine uptake. Format: cell-based.
In test [6] the test system is 8226/ADR adriamycin resistant line of 8226 cells. Put plainly: Human tumor growth inhibition, 3H-thymidine incorporation, 8226/ADR. The format is cell-based. The conditions noted are these: 3H-thymidine uptake.
For test [7], the system named is 8226/MT Mitoxantrone resistant line of 8226 cells. Put plainly: Human tumor growth inhibition, 3H-thymidine incorporation, 8226/MT. The conditions noted are these: for Resistance Ratio (8226/MT): 8226/MT vs 8226; for IC50: Homo sapiens, read-out: IC50 8226/MT.

As to `CCCNCC(O)CNc1ccc(NCC(O)CCl)c2c1C(=O)c1ccccc1C2=O` (stereo not shown) [1a-2 (HCl)], the IC50 against protein kinase C was found to be 160 µM.

For the compound `O=C1c2ccccc2C(=O)c2c(NCC(O)CNCc3ccccc3)ccc(NCC(O)CCl)c21` (stereo not shown) [1a-3 (HCl)], at protein kinase C, the IC50 came to 110 µM.

On protein kinase C, `CCN(CC)CC(O)CNc1ccc(NCC(O)CO)c2c1C(=O)c1ccccc1C2=O` (stereo not shown) [1c-1 (HCl), 1-(3-Diethyl-2-Hydroxypropylamino)-4-(2,3-Dihydroxypropylamino)-9, 10-Anthracenedione Hydrochloride Salt] yielded an IC50 of 180 µM.

As to `COc1cccc2c1C(=O)c1c(O)c3c(c(O)c1C2=O)C[C@@](O)(C(=O)CO)C[C@@H]3O[C@H]1C[C@H](N)[C@H](O)[C@H](C)O1` [ADR, reference compound], the IC50 in test [1] turned out to be 0.02 µM; in test [3] it was 0.05 µM; in test [5] it was 4 µM; in test [6] it was 0.57 µM; in test [7] it was 0.05 µM. In test [2], the “Resistance Ratio (IC50 MCF-7/ADR to IC50 MCF-7)” value was 200. The “Resistance Ratio (8226/ADR)” value in test [4] was found to be 11.4. Moreover, the “Resistance Ratio (8226/MT)” value in test [7] worked out at 1.

In the case of `CCCNCC(O)CNc1ccc(NCC(O)CCl)c2c1C(=O)c1ccccc1C2=O` (stereo not shown) [Compound 1a-2], the IC50 is 7.4 µM in test [1] (3H-thymidine uptake), 10.2 µM in test [3] (3H-thymidine uptake), 16 µM in test [5] and 14.1 µM in test [6]. The “Resistance Ratio (IC50 MCF-7/ADR to IC50 MCF-7)” value in test [2] is on record as 2.2. Further, the “Resistance Ratio (8226/ADR)” value in test [4] is listed as 1.38.

On to `O=C1c2ccccc2C(=O)c2c(NCC(O)CNCc3ccccc3)ccc(NCC(O)CCl)c21` (stereo not shown) [Compound 1a-3], for which the IC50 in test [1] (3H-thymidine uptake) was 7.4 µM; in test [3] (3H-thymidine uptake), 15 µM; in test [5], 14.1 µM; in test [6], 16.3 µM. The “Resistance Ratio (IC50 MCF-7/ADR to IC50 MCF-7)” value in test [2] is reported as 1.9. Also, in test [4], the “Resistance Ratio (8226/ADR)” value turned out to be 1.08.

Turning to `CCN(CC)CC(O)CNc1ccc(NCC(O)CO)c2c1C(=O)c1ccccc1C2=O` (stereo not shown) [Compound 1c-1], the IC50 in test [3] (3H-thymidine uptake) was determined as 18 µM; in test [6], 25 µM. Moreover, the “Resistance Ratio (8226/ADR)” value in test [4] stood at 1.4.

For `O=C1c2c(O)ccc(O)c2C(=O)c2c(NCCNCCO)ccc(NCCNCCO)c21` [MT, reference compound], the IC50 in test [1] (3H-thymidine uptake) is 0.005 µM; in test [3] (3H-thymidine uptake), 0.03 µM; in test [5] it was 4 µM; in test [6], 0.18 µM; in test [7] it was 0.105 µM. The “Resistance Ratio (IC50 MCF-7/ADR to IC50 MCF-7)” value in test [2] is 800. In addition, the “Resistance Ratio (8226/ADR)” value in test [4] is listed as 6. Moreover, the “Resistance Ratio (8226/MT)” value in test [7] came out at 3.5.
